Results from PMC11844072, “Novel 5,6-dichlorobenzimidazole derivatives as dual BRAFWT and BRAFV600E inhibitors: design, synthesis, anti-cancer activity and molecular dynamics simulations” (BMC Chemistry, 2025).

How the values were obtained:
COLO 205 = test: NCI 60 single concentration growth inhibition; assay type: cell-based, human; details: Homo sapiens, COLO 205, Colon cancer, read-out: GI%
In short: (§1)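 Growth measured by sulforhodamine B protein staining (515 nm) after 48 h drug exposure at 37 °C, following 24 h plating in RPMI 1640 with 5% FBS and 2 mM L-glutamine. Compounds first tested at one 10 µM dose, then five-dose series (10-fold or ½ log steps); percent growth relative to time-zero and untreated wells.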

DU-145 = test: NCI 60 single concentration growth inhibition; assay type: cell-based, human; details: Homo sapiens, DU-145, Prostate cancer, read-out: GI%
In short: as §1

HCC-2998 = test: NCI 60 single concentration growth inhibition; assay type: cell-based, human; details: Homo sapiens, HCC-2998, Colon cancer, read-out: GI%
In short: as §1

HT29 = test: NCI 60 single concentration growth inhibition; assay type: cell-based, human; details: Homo sapiens, HT-29, HT29, Colon cancer, read-out: GI%
In short: as §1

NCI-H460 [1] = test: NCI 60 single concentration growth inhibition; assay type: cell-based, human; details: Homo sapiens, NCI-H460, Non-small cell lung cancer, read-out: GI%
In short: as §1

OVCAR-3 = test: NCI 60 single concentration growth inhibition; assay type: cell-based, human; details: Homo sapiens, OVCAR-3, Ovarian cancer, read-out: GI%
In short: as §1

OVCAR-4 = test: NCI 60 single concentration growth inhibition; assay type: cell-based, human; details: Homo sapiens, OVCAR-4, Ovarian cancer, read-out: GI%
In short: as §1

U251 = test: NCI 60 single concentration growth inhibition; assay type: cell-based, human; details: Homo sapiens, U-251, U251, CNS cancer, read-out: GI%
In short: as §1

CAKI-1 = test: NCI 5-dose assay; assay type: cell-based; details: Homo sapiens; CAKI-1, Renal cancer
Procedure: (§2) The synthesized dichlorobenzimidazoles 10a–p were assayed for their influence on divers cancer cell lines according to the method presented in the Additional file A.
(§3) 5. Screening of cytotoxic activity against a panel of sixty human tumor cell lines
(§4) The selected compounds by NCI were evaluated for their anticancer activity in a two-stage process. First, these compounds were screened against the full NCI 60 cell lines panel at a single high dose of 10 µM. Then, the output from the single dose screen is reported as a mean graph. […]
(§5) at five different minimal concentrations.
(§6) Assay protocol. The human tumor cell lines of the cancer screening panel are grown in RPMI 1640 medium containing 5% fetal bovine serum and 2 mM L-glutamine. For a typical screening experiment, cells are inoculated into 96 well microtiter plates in 100 µL at plating densities ranging from 5000 to 40,000 cells/well depending on the doubling time of individual cell lines. After cell inoculation, the microtiter plates are incubated at 37 °C, 5% CO 2, 95% air and 100% relative humidity for 24 h prior to addition of the experimental drugs.
(§7) After 24 h, two plates of each cell line are fixed in situ with TCA, to represent a measurement of the cell population for each cell line at the time of drug addition (Tz). The experimental drugs are solubilized in dimethyl sulfoxide at 400-fold the desired final maximum test concentration and stored frozen prior to use. At the time of drug addition, an aliquot of frozen concentrate is thawed and diluted to twice the desired final maximum test concentration with complete medium containing 50 µg/mL gentamicin. Additional four, 10-fold or ½ log serial dilutions are made to provide a total of five drug concentrations plus control.
(§8) Aliquots of […] of these different drug dilutions are added to the appropriate microtiter wells already containing […] of medium, resulting in the required final drug concentrations.
(§9) Following drug addition, the plates are incubated for an additional 48 h at 37 °C, 5% CO 2, 95% air, and 100% relative humidity. For adherent cells, the assay is terminated by the addition of cold TCA.
(§10) Cells are fixed in situ by the gentle addition of 50 µL of cold 50% (w/v) TCA (final concentration, 10% TCA) and incubated for 60 min at 4 °C. The supernatant is discarded, and the plates are washed five times with tap water and air dried. Sulforhodamine B (SRB) solution ([…]) at 0.4% (w/v) in 1% acetic acid is added to each well, and plates are incubated for 10 min at room temperature. After staining, unbound dye is removed by washing five times with 1% acetic acid and the plates are air dried. Bound stain is subsequently solubilized with 10 mM trizma base, and the absorbance is read on an automated plate reader at a wavelength of 515 nm. For suspension cells, the methodology is […]
(§11) the same except that the assay is terminated by fixing settled cells at the bottom of the wells by gently adding 50 µl of 80% TCA (final concentration, 16% TCA). Using the seven absorbance measurements [time zero, (Tz), control growth, (C), and test growth in the presence of drug at the five concentration levels (Ti)], the percentage growth is calculated at each of the drug concentrations […]
(§12) Percentage growth inhibition is calculated as: [(Ti Tz)/(C–Tz)] x 100 for concentrations for which Ti>/=Tz and [(Ti-Tz)/Tz] x 100 for concentrations for which Ti < Tz.
(§13) Three dose response parameters are calculated for each experimental agent. Growth […]
(§14) concentration resulting in a 50% reduction in the net protein increase (as measured by SRB staining) in control cells during the drug incubation. The drug concentration resulting in total growth inhibition (TGI) is calculated from Ti = Tz. […]
(§15) reduction in the measured protein at the end of the drug treatment as compared to that at the beginning) indicating a net loss of cells following treatment is calculated from [(Ti–Tz)/Tz] x 100 =
(§16) _50. Values are calculated for each of these three parameters if the level of activity is reached; […]

HL-60(TB) = test: NCI 5-dose assay; assay type: cell-based; details: Homo sapiens, Leukemia
Procedure: as §2, §3, §4, §5, §6, §7, §8, §9, §10, §11, §12, §13, §14, §15, §16

MDA-MB-231/ATCC = test: NCI 5-dose assay; assay type: cell-based; details: Homo sapiens, Breast cancer
Procedure: as §2, §3, §4, §5, §6, §7, §8, §9, §10, §11, §12, §13, §14, §15, §16

NCI-H460 [2] = test: NCI 5-dose assay; assay type: cell-based; details: Homo sapiens; NCI-H460, Non-small cell lung cancer
Procedure: as §2, §3, §4, §5, §6, §7, §8, §9, §10, §11, §12, §13, §14, §15, §16

SK-MEL-2 = test: NCI 5-dose assay; assay type: cell-based; details: Homo sapiens; SK-MEL-2, Melanoma
Procedure: as §2, §3, §4, §5, §6, §7, §8, §9, §10, §11, §12, §13, §14, §15, §16

SK-OV-3 = test: NCI 5-dose assay; assay type: cell-based; details: Homo sapiens; SK-OV-3, Ovarian cancer
Procedure: as §2, §3, §4, §5, §6, §7, §8, §9, §10, §11, §12, §13, §14, §15, §16

MALME-3M = test: NCI 60 single concentration growth inhibition; assay type: cell-based, human; details: Melanoma, 10 μM
In short: as §1

UO-31 = test: NCI 60 single concentration growth inhibition; assay type: cell-based, human; details: UO-31, Renal cancer, 10 μM
In short: as §1

IGROV1 = test: NCI 60 single concentration growth inhibition; assay type: cell-based, human; details: IGROV1, Ovarian cancer, 10 μM
In short: as §1

NCI-H322M = test: NCI 60 single concentration growth inhibition; assay type: cell-based, human; details: Non-small cell lung cancer, 10 μM
In short: as §1

SNB-75 = test: NCI 60 single concentration growth inhibition; assay type: cell-based, human; details: SNB-75, CNS cancer, 10 μM
In short: as §1

| Structure (SMILES) | inhibition at 10 µM (COLO 205) [%] | inhibition at 10 µM (DU-145) [%] | inhibition at 10 µM (HCC-2998) [%] | inhibition at 10 µM (HT29) [%] | inhibition at 10 µM (NCI-H460 [1]) [%] | inhibition at 10 µM (OVCAR-3) [%] | inhibition at 10 µM (OVCAR-4) [%] | inhibition at 10 µM (U251) [%] | GI50 (CAKI-1) [µM] | GI50 (HL-60(TB)) [µM] | GI50 (MDA-MB-231/ATCC) [µM] | GI50 (NCI-H460 [2]) [µM] | GI50 (SK-MEL-2) [µM] | GI50 (SK-OV-3) [µM] | GI% (MALME-3M) | GI% (UO-31) [%] | GI% (IGROV1) [%] | GI% (NCI-H322M) | GI% (SNB-75) [%] |
| --- | --- | --- | --- | --- | --- | --- | --- | --- | --- | --- | --- | --- | --- | --- | --- | --- | --- | --- | --- |
| COC(=O)COc1ccc(C=NNC(=O)Cn2c(-c3ccc(OC)cc3)nc3cc(Cl)c(Cl)cc32)cc1 [Compound 10h, Methyl-2-(4-((2-(2-(5,6-dichloro-2-(4-methoxyphenyl)-1H-benzo[d]imidazol-1-yl)acetyl)hydrazono)methyl)phenoxy)acetate] | 51.5 | 158 | 142 | 93.4 | < 5 | 93 | < 5 | 10.1 | 5.74 | > 82.5 | 6.66 | > 82.5 | 10.5 | 19.1 |  |  |  |  |  |
| CCOC(=O)C(C)Oc1ccc(C=NNC(=O)Cn2c(-c3ccc(OC)cc3)nc3cc(Cl)c(Cl)cc32)cc1 (stereo not shown) [Compound 10j, Ethyl-2-(4-((2-(2-(5,6-dichloro-2-(4-methoxyphenyl)-1H-benzo[d]imidazol-1-yl)acetyl) hydrazono)methyl)phenoxy)propanoate] | 8.58 | 85.2 | 15.4 | 39.2 | < 5 | < 5 | 9.77 | 5.26 |  |  |  |  |  |  | – (GI% < 5%) | 25.57 | 25.42 | – (GI% < 5%) | 5.72 |
| COc1ccc(-c2nc3cc(Cl)c(Cl)cc3n2CC(=O)NN=Cc2ccc(OC)c(O)c2)cc1 [Compound 10k, 2-(5,6-Dichloro-2-(4-methoxyphenyl)-1H-benzo[d]imidazol-1-yl)-N'-(3-hydroxy-4-methoxybenzylidene)acetohydrazide] | 22.1 | 26.4 | 32.2 | 30.2 | 24.8 | 23.3 | 47.3 | 38 |  |  |  |  |  |  | 23.45% | 55.02 | 10.22 | 8.94% | 33.65 |
| COC(=O)COc1cc(C=NNC(=O)Cn2c(-c3ccc(OC)cc3)nc3cc(Cl)c(Cl)cc32)ccc1OC [Compound 10o, Methyl-2-(5-((2-(2-(5,6-dichloro-2-(4-methoxyphenyl)-1H-benzo[d]imidazol-1-yl)acetyl)hydrazono)methyl)-2-methoxyphenoxy)acetate] | < 5 | 155 | 83.8 | 90.3 | < 5 | < 5 | 18 | 6.53 | 15.3 | > 100 | 16.1 | > 100 | 21.6 | 26 | – (GI% < 5%) | 18.26 | 97.59 | 11.69% | 27.54 |
| COC(=O)COc1ccc(C=NNC(=O)Cn2c(-c3ccc(OC)cc3)nc3cc(Cl)c(Cl)cc32)cc1OC [Compound 10p, Methyl-2-(4-((2-(2-(5,6-dichloro-2-(4-methoxyphenyl)-1H-benzo[d]imidazol-1-yl)acetyl)hydrazono)methyl)-2-methoxyphenoxy)acetate] | 34.9 | 143 | 86.1 | 116 | < 5 | < 5 | < 5 | < 5 | 2.77 | > 72.5 | 13.8 | 26.1 | 10 | 16 |  |  |  |  |  |
